In patent US20100317625A1, “NOVEL SULFONAMIDOMETHYLP[…] BETA-LACTAMASE” (priority 2006, published 2010) one finds MIC data, which are given here for one molecule.

Converted amounts (≈) assume the structure as drawn.

In test [1] the test system is CL 6188 (Acinetobacter baumanii; Oxa40). Nature of the test: microbe, parasite or virus in culture. The settings on record: Acinetobacter baumannii, read-out: Imipenem MIC.
Description: (§1) The assay determines the concentration of a β-lactamase inhibitor required to reduce the MIC of a β-lactam antibiotic by one-half, one-quarter, one-eighth, one-sixteenth and one-thirty-second against strains of bacteria normally resistant to the antibiotic in question. This is accomplished by titrating the inhibitor (BLI=beta-lactamase inhibitor) in a serial dilution across a microtiter plate while at the same time titrating the antibiotic (AB) in a serial dilution down the microtiter plate and then inoculating the plate with the bacterial strain in question and allowing the bacteria to grow up overnight. Each well in this microplate checkerboard contains a different combination of concentrations of the inhibitor and the antibiotic allowing a full determination of any synergy between the two.
(§2) 100 μL is serially diluted from row A to row G of each MIC 2000 plate. […] 100 μL is removed from each well in row G of each MIC 2000 plate. […] 100 μL is serially diluted from column 1 to column 11 of each MIC 2000 plate. […] Plates are left at 37° C. for about 20 hours and scored for growth by eye. […]
(§3) Plates are scored for growth in each well. End points (MICs) where there is no growth in each row are determined and the concentrations of AB and the test BLI at each of these growth negative wells are then used to determine levels of synergy.
Test [2] relates to CL 5701 (Pseudomonas aeruginosa; Pa AmpC). In words: microbe, parasite or virus in culture. To be noted: read-out: Imipenem MIC.
Description: as §1, §2, §3

In the case of `C[C@@H](O)[C@H]1C(=O)N2C(C(=O)O)=C(SCCN=CN)C[C@H]12` [Imipenem], the MIC in test [1] was 128 µg/mL (≈ 428 µM); in test [2], 20 µg/mL (≈ 66.8 µM).
